# Literature values in patent publication US9327003B2, “Use of foti to enhance stem cell mobilization and proliferation” (Stemtech International, Inc., priority 2011, dated 2016).
# B1: G-CSF: granulocyte colony-stimulating factor or recombinant forms thereof (protein, UniProt P09919 31-207, looked up)
# Granulocyte …: TPLGPASSLPQSFLLKCLEQVRKIQGDGAALQEKLVSECATYKLCHPEELVLLGHSLGIPWAPLSSCPSQALQLAGCLSQLHSGLFLYQGLLQALEGISPELGPTLDTLQLDVADFATTIWQQMEELGMAPALQPTQGAMPAFASAFQRRAGGVLVASHLQSFLEVSYRVLRHLAQP
# Legend:
# circulating HSC = conditions: injection / administration
# [1] = including hemorrhaging, rupturing of the spleen, bloody sputum, bone disorders
Molecule,time course of elevating circulating HSC numbers (circulating HSC),side effects [1],other results
IL-8: interleukin-8,acts only within minutes and has a short-lived effect,–,–
"OC[C@H]1O[C@@H](Oc2c(O)cc(O)cc2C=Cc2ccc(O)cc2)[C@H](O)[C@@H](O)[C@@H]1O [2,3,5,4′-tetrahydroxystilbene-2-O-β-d-glycoside]",–,–,stability in aqueous solutions: readily degrade in aqueous solutions in a temperature and pH dependent manner
G-CSF: granulocyte colony-stimulating factor or recombinant forms thereof,requires days to achieve peak circulating HSC numbers,–,–
"c1cc(CN2CCCNCCNCCCNCC2)ccc1CN1CCCNCCNCCCNCC1 [AMD3100, reference compound]",–,significant side effects,–
B1,–,significant side effects,–
